# Experimental data reported in ChEMBL document CHEMBL5608197, “Optimization of pyrazolopyridine 4-carboxamides with potent antimalarial activity for which resistance is associated with the P. falciparum transporter ABCI3” (Eur J Med Chem, 2024).
# Assays:
# Plasmodium falciparum [1] = experiment: Antiplasmodial activity against asexual blood stage of Plasmodium falciparum 3D7 assessed as inhibition of parasite growth incubated for 72 hrs by LDH assay; format: functional, organism-based; details: 3D7, 72 h
# [2] = Cytotoxicity against human HepG2 cells assessed as inhibition of cell growth incubated for 48 hrs by CellTiter-Glo luminescence assay; format: toxicity, cell-based
# Plasmodium falciparum [3] = experiment: Antiplasmodial activity against Plasmodium falciparum Dd2 infected in erythrocytes assessed as inhibition of parasite growth incubated for 72 hrs by [3H]hypoxanthine incorporation based microbeta counting analysis; format: functional, organism-based; details: Dd2, Erythrocyte
# Plasmodium falciparum [4] = experiment: Antiplasmodial activity against multidrug-resistant Plasmodium falciparum Dd2 harboring PI4K-S743F mutant infected in erythrocytes assessed as inhibition of parasite growth incubated for 72 hrs by [3H]hypoxanthine incorporation based microbeta counting analysis; format: functional, organism-based; details: Dd2, Erythrocyte
# Plasmodium falciparum [5] = experiment: Antiplasmodial activity against multidrug-resistant Plasmodium falciparum Dd2 harboring DHODH-C276F mutant infected in erythrocytes assessed as inhibition of parasite growth incubated for 72 hrs by [3H]hypoxanthine incorporation based microbeta counting analysis; format: functional, organism-based; details: Dd2, Erythrocyte
# [6] = Intrinsic clearance in rat hepatocytes at 1 uM measured per million cells for 90 mins by LC-MS/MS analysis; format: ADME, cell-based, Hepatocyte; details: read-out: CLH
# [7] = Aqueous solubility of the compound in PBS buffer at pH 7.4 at 200 uM incubated for 2 hrs under shaking condition by miniaturized shake flask method; format: physicochemical
# [8] = Lipophilicity, elogD of the compound in 1-Octanol/PBS at pH 7.4 at 7.5 uM incubated for 2 hrs by miniaturized shake flask method; format: physicochemical
# [9] = Intrinsic clearance in human liver microsomes at 1 uM measured for 60 mins by LC-MS/MS analysis; format: ADME, Microsome; details: read-out: CLH
# Plasmodium falciparum [10] = experiment: Antiplasmodial activity against ring stage of Plasmodium falciparum 3D7 expressing ABCI3-HAreg assessed as inhibition of parasite proliferation incubated for 72 hrs in presence of ABCI3 inhibitor, GlcN by SYBR dye based flow cytometry; format: functional, organism-based; details: 3D7, 72 h
# Plasmodium falciparum [11] = experiment: Antiplasmodial activity against multidrug-resistant Plasmodium falciparum Dd2 harboring cyt b-I22L mutant infected in erythrocytes assessed as inhibition of parasite growth incubated for 72 hrs by [3H]hypoxanthine incorporation based microbeta counting analysis; format: functional, organism-based; details: Dd2, Erythrocyte
# Plasmodium falciparum [12] = experiment: Antiplasmodial activity against multidrug-resistant Plasmodium falciparum Dd2 harboring CARL-I1139K mutant infected in erythrocytes assessed as inhibition of parasite growth incubated for 72 hrs by [3H]hypoxanthine incorporation based microbeta counting analysis; format: functional, organism-based; details: Dd2, Erythrocyte
# Plasmodium falciparum [13] = experiment: Antiplasmodial activity against multidrig-resistant Plasmodium falciparum Dd2 harboring eEF2Y-I86N mutant infected in erythrocytes assessed as inhibition of parasite growth incubated for 72 hrs by [3H]hypoxanthine incorporation based microbeta counting analysis; format: functional, organism-based; details: Dd2, Erythrocyte
Compound,EC50 (Plasmodium falciparum [1]) [nM],CC50 at 48 h [2] [nM],also measured
CC1CN(C(=O)c2cc(-c3ccccc3)nc3c2cnn3C(C)C)CCO1 (stereo not drawn),1000,> 40000,
CS(=O)(=O)c1ccc(-c2cnc(N)c(-c3ccc(C(F)(F)F)nc3)c2)cc1 [MMV-048],,,EC50 (Plasmodium falciparum [3]): 12 nM; EC50 (Plasmodium falciparum [4]): 90 nM
Cc1cc(Nc2ccc(S(F)(F)(F)(F)F)cc2)n2nc(C(C)(F)F)nc2n1 [DSM-265],,,EC50 (Plasmodium falciparum [3]): 6 nM; EC50 (Plasmodium falciparum [5]): 100 nM
Cc1cc(C(=O)N2CCOc3ccccc32)c2c(C)nn(C(C)(C)C)c2n1,5630,> 40000,
Cc1nn(C(C)(C)C)c2nc(C3CC3)cc(C(=O)N3CCOCC3)c12,2330,> 40000,
Cc1nn(C(C)(C)C)c2nc(C3CC3)cc(C(=O)N3CCOc4cccnc43)c12,856,> 10000,
COc1nn(C(C)(C)C)c2nc(C3CC3)cc(C(=O)N3CCOc4ccccc43)c12,123,> 40000,"hepatocyte CLint at 1 µM [6]: 19 µL/min/1e6 cells; solubility thermodynamic at 2 h, 200 µM [7]: < 2.5 µM; logD at 2 h, 7.5 µM [8]: > 6.4; microsomal CLint at 1 µM [9]: 300 µL/min/mg"
CCN(CC)CCCC(C)Nc1ccnc2cc(Cl)ccc12 (stereo not drawn) [CHLOROQUINE],,,EC50 (Plasmodium falciparum [10]): 11.3 nM
COc1nn(C(C)C)c2nc(C3CC3)cc(C(=O)N3CCOc4ccncc43)c12,15,28700,"hepatocyte CLint at 1 µM [6]: > 92 µL/min/1e6 cells; solubility thermodynamic at 2 h, 200 µM [7]: 161 µM; logD at 2 h, 7.5 µM [8]: 3.7; microsomal CLint at 1 µM [9]: > 462 µL/min/mg"
CC(C)(C)n1nc(-c2ccccc2)c2c(C(=O)N3CCOc4ccccc43)cc(C3CC3)nc21,2180,> 40000,
CCc1cc(C(=O)N2CCOc3ccccc32)c2c(C)nn(C(C)(C)C)c2n1,843,> 40000,
COc1cc2[nH]c(C)c(-c3ccc(Oc4ccc(OC(F)(F)F)cc4)cc3)c(=O)c2cc1Cl,,,EC50 (Plasmodium falciparum [3]): 14 nM; EC50 (Plasmodium falciparum [11]): 120 nM
CC(C)(C)n1nc(C2CC2)c2c(C(=O)N3CCOc4ccccc43)cc(C3CC3)nc21,79,> 10000,
COc1ccccc1N(C)C(=O)c1cc(C2CC2)nc2c1c(C)nn2C(C)(C)C,2360,> 10000,
COc1nn(C(C)(C)C)c2nc(C3CC3)cc(C(=O)N3CCOc4ccncc43)c12,5,7260,"hepatocyte CLint at 1 µM [6]: 87 µL/min/1e6 cells; solubility thermodynamic at 2 h, 200 µM [7]: 19 µM; logD at 2 h, 7.5 µM [8]: 5.1; microsomal CLint at 1 µM [9]: 423 µL/min/mg"
Cc1nn(C(C)(C)C)c2nc(C3CC3)cc(C(=O)N3CCCc4ccccc43)c12,164,> 40000,"hepatocyte CLint at 1 µM [6]: 45 µL/min/1e6 cells; solubility thermodynamic at 2 h, 200 µM [7]: 2.8 µM; logD at 2 h, 7.5 µM [8]: 5.9; microsomal CLint at 1 µM [9]: 277 µL/min/mg"
CC1(C)c2nc(-c3ccc(F)cc3)c(Nc3ccc(F)cc3)n2CCN1C(=O)CN [GANAPLACIDE],,,EC50 (Plasmodium falciparum [3]): 17 nM; EC50 (Plasmodium falciparum [12]): 1920 nM
Cc1nn(C(C)(C)C)c2nc(C3CC3)cc(C(=O)N3CCOc4cnccc43)c12,2070,,
Cc1nn(C(C)(C)C)c2nc(C3CC3)cc(C(=O)N3CCN(C)CC3)c12,545,> 40000,
Cc1nn(C(C)(C)C)c2nc(C3CC3)cc(C(=O)N3CCOc4ccc(F)cc43)c12,130,9670,"hepatocyte CLint at 1 µM [6]: 22 µL/min/1e6 cells; solubility thermodynamic at 2 h, 200 µM [7]: 2.8 µM; logD at 2 h, 7.5 µM [8]: 5.8; microsomal CLint at 1 µM [9]: 100 µL/min/mg"
COc1ccccc1CNC(=O)c1cc(C2CC2)nc2c1c(C)nn2C(C)(C)C,463,> 40000,
Cc1nn(C(C)(C)C)c2nc(C(C)C)cc(C(=O)N3CCOc4ccccc43)c12,740,> 40000,
CC(C)c1nn(C(C)(C)C)c2nc(C3CC3)cc(C(=O)N3CCOc4ccccc43)c12,580,> 40000,
Cc1n[nH]c2nc(C3CC3)cc(C(=O)N3CCOc4ccccc43)c12,> 10000,,

Compound,EC50 (Plasmodium falciparum [1]) [nM],CC50 at 48 h [2] [nM],also measured
COc1ccccc1NC(=O)c1cc(C2CC2)nc2c1c(C)nn2C(C)(C)C,2300,> 40000,
Cc1nn(C(C)C)c2nc(C3CC3)cc(C(=O)N3CCOc4ccccc43)c12,310,> 40000,"hepatocyte CLint at 1 µM [6]: > 92 µL/min/1e6 cells; solubility thermodynamic at 2 h, 200 µM [7]: 10 µM; logD at 2 h, 7.5 µM [8]: 4.5; microsomal CLint at 1 µM [9]: 424 µL/min/mg"
Cc1nn(C(C)(C)C)c2nc(C3CC3)cc(C(=O)Nc3ccccc3)c12,3850,> 10000,
COc1cc(C(=O)N2CCOc3ccccc32)c2c(C)nn(C(C)(C)C)c2n1,1040,> 40000,
COc1ccccc1CNC(=O)c1cc(C2CC2)nc2c1cnn2C(C)C,680,> 40000,
Cc1nn(C(C)C)c2nc(C(C)C)cc(C(=O)Nc3nnc4ccccn34)c12,860,,
CC(C)(C)n1nc(Br)c2c(C(=O)N3CCOc4ccccc43)cc(C3CC3)nc21,155,> 40000,
Cc1nn(C(C)(C)C)c2nc(C3CC3)cc(C(=O)N3CCNc4ccccc43)c12,181,> 40000,"hepatocyte CLint at 1 µM [6]: 123 µL/min/1e6 cells; solubility thermodynamic at 2 h, 200 µM [7]: 3.5 µM; logD at 2 h, 7.5 µM [8]: 4.8; microsomal CLint at 1 µM [9]: 471 µL/min/mg"
CC(C)(C)n1nc(Cl)c2c(C(=O)N3CCOc4ccccc43)cc(C3CC3)nc21,260,> 40000,"hepatocyte CLint at 1 µM [6]: 34 µL/min/1e6 cells; solubility thermodynamic at 2 h, 200 µM [7]: < 2.5 µM; logD at 2 h, 7.5 µM [8]: > 5.9; microsomal CLint at 1 µM [9]: 155 µL/min/mg"
Cc1nn(C(C)(C)C)c2nc(C3CC3)cc(C(=O)N3CCCCC3)c12,635,> 40000,
Cc1nn(C(C)(C)C)c2nc(C3CC3)cc(C(=O)Nc3nnc4ccccn34)c12,> 10000,,
CCc1nn(C(C)(C)C)c2nc(C3CC3)cc(C(=O)N3CCOc4ccccc43)c12,288,> 10000,
Cc1nn(C(C)(C)C)c2nc(C3CC3)cc(C(=O)N3CCN(C)c4ccccc43)c12,257,> 40000,"hepatocyte CLint at 1 µM [6]: 65 µL/min/1e6 cells; solubility thermodynamic at 2 h, 200 µM [7]: 3 µM; logD at 2 h, 7.5 µM [8]: 5.4; microsomal CLint at 1 µM [9]: 387 µL/min/mg"
Cc1nn(C(C)(C)C)c2nc(C3CC3)cc(C(=O)N3CCOc4ncccc43)c12,2500,> 10000,
Cc1nn(C(C)(C)C)c2nc(C3CC3)cc(C(=O)N3CCOc4cc(F)ccc43)c12,1050,> 10000,"hepatocyte CLint at 1 µM [6]: 23 µL/min/1e6 cells; solubility thermodynamic at 2 h, 200 µM [7]: < 2.5 µM; logD at 2 h, 7.5 µM [8]: 5.9; microsomal CLint at 1 µM [9]: 160 µL/min/mg"
Cc1cc(C)c(NC(=O)c2cc(C)nc3c2c(C)nn3C)c(Cl)c1,170,> 40000,
Cc1nn(C(C)(C)C)c2nc(-c3ccccc3)cc(C(=O)N3CCOc4ccccc43)c12,453,> 40000,
O=C(NCCN1CCCC1)c1cc(-c2ccc(CN3CCOCC3)cc2)nc2ccc(F)cc12 [CABAMIQUINE],,,EC50 (Plasmodium falciparum [3]): 1 nM; EC50 (Plasmodium falciparum [13]): 850 nM
Cc1nn(C(C)(C)C)c2nc(C3CC3)cc(C(=O)N3CCc4ccccc43)c12,2480,> 40000,
Cc1nn(C)c2nc(C3CC3)cc(C(=O)N3CCOc4ccccc43)c12,> 10000,,
CC(C)(C)n1ncc2c(C(=O)N3CCOc4ccccc43)cc(C3CC3)nc21,490,> 40000,
Cc1nn(-c2ccccc2)c2nc(C3CC3)cc(C(=O)N3CCOc4ccccc43)c12,1120,> 40000,
Cc1cc(C)c(NC(=O)c2cc(C3CC3)nc3c2c(C)nn3C(C)(C)C)c(Cl)c1,1130,> 40000,
